Measurements from ChEMBL document CHEMBL1201862, “PubChem BioAssay data set” (2004).
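These data come from cells grown in 96-well plates and exposed to compound for 48 hours at five concentrations. The concentration for 50% growth inhibition is given as GI50.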 The source made the active and inactive calls. Rule as the data show it: active = GI50 up to about 1.1 µM and inactive = higher.

Tests used:
Assay in all cases: growth of human tumour cells (NCI), 48 h
[1] = system: 786-0
[2] = system: A498
[3] = system: A549
[4] = system: ACHN
[5] = system: CAKI-1
[6] = system: CCRF-CEM
[7] = system: COLO 205
[8] = system: DLD-1
[9] = system: DMS-273
[10] = system: EKVX
[11] = system: HCC 2998
[12] = system: HCT-116
[13] = system: HCT-15
[14] = system: HL-60
[15] = system: HOP-18
[16] = system: HOP-62
[17] = system: HOP-92
[18] = system: HT-29
[19] = system: IGROV-1
[20] = system: K562
[21] = system: KM-20L2
[22] = system: KM12
[23] = system: LOX IMVI
[24] = system: LXFL 529
[25] = system: M14
[26] = system: M19-MEL
[27] = system: MOLT-4
[28] = system: Malme-3M
[29] = system: NCI-H226
[30] = system: NCI-H23
[31] = system: NCI-H460
[32] = system: NCI-H522
[33] = system: OVCAR-3
[34] = system: OVCAR-4
[35] = system: OVCAR-5
[36] = system: OVCAR-8
[37] = system: RPMI-8226
[38] = system: SF-268
[39] = system: SF-295
[40] = system: SF-539
[41] = system: SK-MEL-28
[42] = system: SK-MEL-2
[43] = system: SK-MEL-5
[44] = system: SK-OV-3
[45] = system: SN12C
[46] = system: SNB-19
[47] = system: SNB-75
[48] = system: SR
[49] = system: SW-620
[50] = system: TK-10
[51] = system: U-251
[52] = system: UACC-257
[53] = system: UACC-62
[54] = system: UO-31

Measured: GI50

COc1ccc(C(N)=O)cc1/N=N/N(C)C
inactive: [1] > 100 µM | [2] > 100 µM | [3] > 100 µM | [4] > 100 µM | [5] > 100 µM | [6] > 100 µM | [7] > 100 µM | [8] > 100 µM | [9] > 100 µM | [10] > 100 µM | [11] > 100 µM | [12] > 100 µM | [14] > 100 µM | [15] > 100 µM | [16] > 100 µM | [17] > 100 µM | [18] > 100 µM | [19] > 100 µM | [20] > 100 µM | [21] > 100 µM | [22] > 100 µM | [23] > 100 µM | [24] > 100 µM | [25] > 100 µM | [26] > 100 µM | [27] > 100 µM | [28] > 100 µM | [29] > 100 µM | [30] > 100 µM | [31] > 100 µM | [32] > 100 µM | [33] > 100 µM | [34] > 100 µM | [35] > 100 µM | [36] 78.3 µM | [37] > 100 µM | [38] > 100 µM | [39] > 100 µM | [40] > 100 µM | [41] > 100 µM | [42] > 100 µM | [43] > 100 µM | [44] > 100 µM | [45] > 100 µM | [46] > 100 µM | [47] > 100 µM | [48] 39.8 µM | [49] > 100 µM | [50] > 100 µM | [51] > 100 µM | [52] > 100 µM | [53] > 100 µM | [54] > 100 µM
> 100 µM: [13]
